# Measured values reported in patent US7612076B2, “Piperazinyl-pyridine derivatives” (Hoffman-La Roche Inc., priority 2004, dated 2009).
# Target: T1, histamine 3 receptor (H3R) (Homo sapiens, UniProt Q9Y5N1)
# T1 construct: expressed in transfected cells; host or cells: CHO cells (HR3-CHO cell line), membrane preparation
# Assay: Binding Assay with 3H-(R)α-Methylhistamine (competition binding, membrane of the human HR3-CHO cell line)
# Details: competition binding vs 3H(R)α-Methylhistamine (1 nM = Kd), 1 hour room temperature, Ki calculated from IC50 by Cheng-Prusoff
# Description: Binding Assay with ^3H—(R)α-Methylhistamine
# Saturation binding experiments were performed using HR3-CHO membranes prepared as described in Takahashi, K, Tokita, S., Kotani, H. (2003) J. Pharmacol. Exp. Therapeutics 307, 213-218.
# An appropriate amount of membrane (60 to 80 μg protein/well) was incubated with increasing concentrations of ^3H(R)α-Methylhistamine di-hydrochloride (0.10 to 10 nM). Non specific binding was determined using a 200 fold excess of cold (R)α-Methylhistamine dihydrobromide (500 nM final concentration). The incubation was carried out at room temperature (in deep-well plates shaking for three hours). The final volume in each well was 250 μl. The incubation was followed by rapid filtration on GF/B filters (pre-soaked with 100 μl of 0.5% PEI in Tris 50 mM shaking at 200 rpm for two hours). The filtration was made using a cell-harvester and the filter plates were then washed five times with ice cold washing buffer containing 0.5 M NaCl. After harvesting, the plates were dried at 55° C. for 60 min, then we added scintillation fluid (Microscint 40, 40 microl in each well) and the amount of radioactivity on the filter was determined in Packard top-counter after shaking the plates for two hours at 200 rpm at room temperature.
# Binding Buffer: 50 mM Tris-HCl pH 7.4 and 5 mM MgCl2×6H2O pH 7.4. Washing Buffer: 50 mM Tris-HCl pH 7.4 and 5 mM MgCl2×6H2O and 0.5 M NaCl pH 7.4.
# Indirect measurement of affinity of H3R inverse agonists: twelve increasing concentrations (ranging from 10 μM to 0.3 nM) of the selected compounds were always tested in competition binding experiments using membrane of the human HR3-CHO cell line. An appropriate amount of protein, e.g. approximately 500 cpm binding of RAMH at Kd, were incubated for 1 hour at room temperature in 250 μl final volume in 96-well plates in presence of ^3H(R)α-Methylhistamine (1 nM final concentration=Kd). […]
# All compounds were tested at a single concentration in duplicates. […] Ki's were calculated from IC50 based on Cheng-Prusoff equation (Cheng, Y, Prusoff, W H (1973) Biochem Pharmacol 22, 3099-3108).
# T1 sequence (Q9Y5N1 whole entry): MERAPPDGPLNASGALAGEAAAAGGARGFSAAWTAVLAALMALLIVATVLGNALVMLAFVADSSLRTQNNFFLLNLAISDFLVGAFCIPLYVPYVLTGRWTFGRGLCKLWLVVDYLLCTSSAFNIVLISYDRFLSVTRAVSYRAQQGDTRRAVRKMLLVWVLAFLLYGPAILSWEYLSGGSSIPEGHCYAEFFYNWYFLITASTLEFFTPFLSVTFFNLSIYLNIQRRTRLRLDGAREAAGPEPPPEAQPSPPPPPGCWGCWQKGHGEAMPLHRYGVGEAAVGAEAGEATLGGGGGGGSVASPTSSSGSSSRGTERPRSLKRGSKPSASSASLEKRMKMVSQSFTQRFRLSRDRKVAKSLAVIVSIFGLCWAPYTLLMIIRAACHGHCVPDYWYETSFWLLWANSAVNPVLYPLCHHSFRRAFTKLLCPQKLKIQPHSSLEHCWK
row,Ki,Compound
1,76.7 nM,"O=C(Nc1cc(N2CCN(C3CCCC3)CC2)ccn1)c1cccc(F)c1 [Example 48, N-[4-(4-cyclopentyl-piperazin-1-yl)-pyridin-2-yl]-3-fluoro-benzamide]"
2,8.5 nM,"O=C(Nc1ccnc(N2CCN(C3CCCC3)CC2)c1)C1CCCCC1 [Example 11, cyclohexanecarboxylic acid [2-(4-cyclopentyl-piperazin-1-yl)-pyridin-4-yl]-amide]"
3,48.6 nM,"O=C(Nc1ccnc(N2CCN(C3CCCC3)CC2)c1)N1CCC(F)CC1 [Example 66, 4-fluoro-piperidine-1-carboxylic acid [2-(4-cyclopentyl-piperazin-1-yl)-pyridin-4-yl]-amide]"
